Results taken from publication PMC9090415, “Discovery of small molecule inhibitors of Plasmodium falciparum apicoplast DNA polymerase” (Journal of Enzyme Inhibition and Medicinal Chemistry, 2022).

Target: P. falciparum apicoplast DNA polymerase (Pf-apPOL) (Plasmodium falciparum, UniProt Q8ILY1)
Experiment: Fluorescence-based high-throughput DNA polymerase assay (molecular beacon), primary screen and dose-response
Type: biochemical
Experimental: The HT assay employs a molecular beacon, a stem-loop DNA template with a Cy3 dye and the Black Hole Quencher on the 3′ and 5′ ends of the DNA, respectively. Pf-apPOL concentration is based on a calculated absorptivity of ε280 = 56750 M^−1 cm^−1. Reactions were carried out at 25 °C, using Corning 3575 […] (well-volume, 20 µL). Assays testing for compound inhibition composed of reaction buffer (pH 7.9 in 50 mM potassium acetate, 20 mM Tris-acetate and 10 mM magnesium acetate), Pf-apPOL (20 nM), DNA substrate (20 nM), dNTPs (6 µM), and compound (10 µM in DMSO). The DNA and nucleotide substrates (dNTPs) were at concentrations of 20 nM and 6 µM, respectively, in the assay. Pf-apPOL was incubated in the reaction buffer with dNTPs and the compound of interest (10 µM, in the assay) at 25 °C for 10 min. The DNA substrate was then added and the reaction was allowed to proceed for 90 min at 25 °C.
Each assay plate contained 16 negative controls (no Pf-apPOL, DMSO present) and 16 positive controls (Pf-apPOL present, no DMSO). The fluorescence of each well was determined using a BioTek Synergy Neo fluorescence plate reader using excitation and emission wavelengths of 555 and 570 nm, respectively.
In the above, Min is the average of fluorescence emission of the negative controls (substrate only), Max the average fluorescence emission from the positive controls (enzyme + substrate), and Test the emission from the assays in the presence of compounds (enzyme + compound + substrates). […] […] The IC50 of each compound was determined using Equation (2): (2) IC50= Vmax/(1+ (I/IC50)^n)
In the above, n measures cooperativity, with n > 1 indicating synergistic binding of more than a single molecule of the compound.
To identify apPOL inhibitors we utilised our previously developed high-throughput DNA polymerase assay. The HT assay is based on a molecular beacon DNA template that forms a stem-loop with a Cy3 dye and the Black Hole Quencher on the 3′ and 5′ ends of the DNA, respectively. DNA polymerase activity extends an annealed primer through the stem region, displacing the fluorophore from the quencher, thereby increasing its fluorescence (Figure 1(A)). The assay accurately recapitulates the kinetic behaviour of apPOL, as measured through more conventional low-throughput gel-based assays. The Z′ factor for the assay described here was 0.9 across all plates (data not shown).
Figure 1. High-throughput screening. (A) The fluorescent-based DNA polymerase assay used to screen the compound libraries. The DNA template strand is a hairpin loop with a primer annealed to the loop. The 3’ end of the primer is 11 bases away from the 6 bp duplex. Strand displacement activity of the DNA polymerase separates the Cy3 dye from the Black hole quencher leading to an increase in fluorescent signal. (B) The high-throughput assay workflow. The DNA polymerase is incubated with […] compound for 10 min prior to addition of the hairpin substrate. The reaction is quenched at 3 different time points and the fluorescent signal is measured and % inhibition is determined using the provided equation.

P. falciparum apicoplast DNA polymerase (Pf-apPOL), sequence (Q8ILY1 entry or part of it): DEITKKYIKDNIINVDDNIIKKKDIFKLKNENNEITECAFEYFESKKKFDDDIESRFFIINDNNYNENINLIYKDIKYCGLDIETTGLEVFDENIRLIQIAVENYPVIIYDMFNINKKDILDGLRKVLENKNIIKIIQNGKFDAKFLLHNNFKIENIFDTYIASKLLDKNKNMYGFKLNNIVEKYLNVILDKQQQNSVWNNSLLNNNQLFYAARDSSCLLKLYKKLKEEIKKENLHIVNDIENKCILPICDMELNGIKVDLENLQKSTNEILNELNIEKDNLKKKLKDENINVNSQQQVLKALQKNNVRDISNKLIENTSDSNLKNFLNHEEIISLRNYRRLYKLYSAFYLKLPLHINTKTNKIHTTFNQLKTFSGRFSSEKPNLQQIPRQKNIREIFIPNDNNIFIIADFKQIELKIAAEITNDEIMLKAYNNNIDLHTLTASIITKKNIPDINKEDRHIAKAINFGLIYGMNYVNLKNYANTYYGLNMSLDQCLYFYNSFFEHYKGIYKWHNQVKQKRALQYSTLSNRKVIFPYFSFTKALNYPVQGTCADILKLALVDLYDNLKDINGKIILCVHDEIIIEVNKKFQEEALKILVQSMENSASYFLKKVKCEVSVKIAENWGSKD

O=[N+]([O-])c1cc2c(cc1CN1CCN(c3cccc(Cl)c3)CC1)OCO2 [KU0005610]
DNA Pol ('DNA Pol'; screening value, unit not given; 90 min, 10 µM): 40 | % inhibition Apo pol 10' (DRC-1; 10'; concentration 2.5): 13.4536% | % inhibition Apo pol 10' (DRC-1; 10'; concentration 5): 19.449% | % inhibition Apo pol 10' (DRC-1; 10'; concentration 10): 35.0383% | % inhibition Apo pol 10' (DRC-1; 10'; concentration 20): 58.0522% | % inhibition Apo pol 10' (DRC-1; 10'; concentration 40): 81.6045% | % inhibition Apo pol 10' (DRC-1; 10'; concentration 80): 82.8557% | % inhibition Apol 90' (DRC-1; 90'; concentration 2.5): 0.2927% | % inhibition Apol 90' (DRC-1; 90'; concentration 5): 2.869% | % inhibition Apol 90' (DRC-1; 90'; concentration 10): 13.5382% | % inhibition Apol 90' (DRC-1; 90'; concentration 20): 40.3549% | % inhibition Apol 90' (DRC-1; 90'; concentration 40): 64.8091% | % inhibition Apol 90' (DRC-1; 90'; concentration 80): 60.8313% | % inhibition apPOL 180' (DRC-1; 180'; concentration 2.5): -5.629% | % inhibition apPOL 180' (DRC-1; 180'; concentration 5): -4.543% | % inhibition apPOL 180' (DRC-1; 180'; concentration 10): 2.609% | % inhibition apPOL 180' (DRC-1; 180'; concentration 20): 32.6998% | % inhibition apPOL 180' (DRC-1; 180'; concentration 40): 54.6533% | % inhibition apPOL 180' (DRC-1; 180'; concentration 80): 41.754% | % inhibition Apo pol 5' (DRC-2, 5', concentration 2.5): 6% | % inhibition Apo pol 5' (DRC-2, 5', concentration 5): 11% | % inhibition Apo pol 5' (DRC-2, 5', concentration 10): 25% | % inhibition Apo pol 5' (DRC-2, 5', concentration 20): 34% | % inhibition Apo pol 5' (DRC-2, 5', concentration 40): 45% | % inhibition Apo pol 5' (DRC-2, 5', concentration 80): 49% | % inhibition Apol 40' (DRC-2, 40', concentration 2.5): 2.55% | % inhibition Apol 40' (DRC-2, 40', concentration 5): 6.48% | % inhibition Apol 40' (DRC-2, 40', concentration 10): 18% | % inhibition Apol 40' (DRC-2, 40', concentration 20): 28% | % inhibition Apol 40' (DRC-2, 40', concentration 40): 49% | % inhibition Apol 40' (DRC-2, 40', concentration 80): 61% | % inhibition ApPOL 90' (DRC-2, 90', concentration 2.5): -0.242% | % inhibition ApPOL 90' (DRC-2, 90', concentration 5): 1.42% | % inhibition ApPOL 90' (DRC-2, 90', concentration 10): 11% | % inhibition ApPOL 90' (DRC-2, 90', concentration 20): 20% | % inhibition ApPOL 90' (DRC-2, 90', concentration 40): 45% | % inhibition ApPOL 90' (DRC-2, 90', concentration 80): 61% | % inhibition apPOL 180' (DRC-2, 180', concentration 2.5): -7.6% | % inhibition apPOL 180' (DRC-2, 180', concentration 5): -5.3% | % inhibition apPOL 180' (DRC-2, 180', concentration 10): 2.12% | % inhibition apPOL 180' (DRC-2, 180', concentration 20): 7% | % inhibition apPOL 180' (DRC-2, 180', concentration 40): 32% | % inhibition apPOL 180' (DRC-2, 180', concentration 80): 53% | % inhibition Apo pol 5' (conc 5 (unit not given); 5'; DRC-2): 11% | % inhibition ApPOL 90' (conc 10 (unit not given); 90'; DRC-2): 11% | % inhibition Apo pol 5' (conc 40 (unit not given); 5'; DRC-2): 45% | % inhibition Apol 40' (conc 40 (unit not given); 40'; DRC-2): 49% | % inhibition ApPOL 90' (conc 40 (unit not given); 90'; DRC-2): 45% | % inhibition Apo pol 5' (conc 80 (unit not given); 5'; DRC-2): 49% | % inhibition Apol 40' (conc 80 (unit not given); 40'; DRC-2): 61% | % inhibition ApPOL 90' (conc 80 (unit not given); 90'; DRC-2): 61% | DNA Pol (primary screen hit value, DNA Pol (186 hits); 90 min, 10 µM): 40

O=C(O)c1c(F)c(F)c(-c2c(F)c(F)c(C(=O)O)c(F)c2F)c(F)c1F [KU0008974]
DNA Pol (186 hits, value of the hit list (primary screen); unit not given; 90 min, 10 µM): 36 | % inhibition Apo pol 10' (DRC-1; 10'; concentration 2.5): 9.435% | % inhibition Apo pol 10' (DRC-1; 10'; concentration 5): 13.4595% | % inhibition Apo pol 10' (DRC-1; 10'; concentration 10): 21.422% | % inhibition Apo pol 10' (DRC-1; 10'; concentration 20): 42.0339% | % inhibition Apo pol 10' (DRC-1; 10'; concentration 40): 61.4201% | % inhibition Apo pol 10' (DRC-1; 10'; concentration 80): 59.9111% | % inhibition Apol 90' (DRC-1; 90'; concentration 2.5): 3.377% | % inhibition Apol 90' (DRC-1; 90'; concentration 5): 7.4359% | % inhibition Apol 90' (DRC-1; 90'; concentration 10): 14.2426% | % inhibition Apol 90' (DRC-1; 90'; concentration 20): 33.67% | % inhibition Apol 90' (DRC-1; 90'; concentration 40): 52.8962% | % inhibition Apol 90' (DRC-1; 90'; concentration 80): 50.0149% | % inhibition apPOL 180' (DRC-1; 180'; concentration 2.5): -2.039% | % inhibition apPOL 180' (DRC-1; 180'; concentration 5): 0.5684% | % inhibition apPOL 180' (DRC-1; 180'; concentration 10): 7.634% | % inhibition apPOL 180' (DRC-1; 180'; concentration 20): 22.5458% | % inhibition apPOL 180' (DRC-1; 180'; concentration 40): 40.2712% | % inhibition apPOL 180' (DRC-1; 180'; concentration 80): 38.6937% | % inhibition Apo pol 5' (DRC-2, 5', concentration 2.5): 4% | % inhibition Apo pol 5' (DRC-2, 5', concentration 5): 5% | % inhibition Apo pol 5' (DRC-2, 5', concentration 10): 17% | % inhibition Apo pol 5' (DRC-2, 5', concentration 20): 29% | % inhibition Apo pol 5' (DRC-2, 5', concentration 40): 17% | % inhibition Apo pol 5' (DRC-2, 5', concentration 80): 35% | % inhibition Apol 40' (DRC-2, 40', concentration 2.5): 5% | % inhibition Apol 40' (DRC-2, 40', concentration 5): 9% | % inhibition Apol 40' (DRC-2, 40', concentration 10): 23% | % inhibition Apol 40' (DRC-2, 40', concentration 20): 41% | % inhibition Apol 40' (DRC-2, 40', concentration 40): 20% | % inhibition Apol 40' (DRC-2, 40', concentration 80): 47% | % inhibition ApPOL 90' (DRC-2, 90', concentration 2.5): 2.67% | % inhibition ApPOL 90' (DRC-2, 90', concentration 5): 7.58% | % inhibition ApPOL 90' (DRC-2, 90', concentration 10): 21% | % inhibition ApPOL 90' (DRC-2, 90', concentration 20): 39% | % inhibition ApPOL 90' (DRC-2, 90', concentration 40): 19% | % inhibition ApPOL 90' (DRC-2, 90', concentration 80): 47% | % inhibition apPOL 180' (DRC-2, 180', concentration 2.5): -4% | % inhibition apPOL 180' (DRC-2, 180', concentration 5): -1% | % inhibition apPOL 180' (DRC-2, 180', concentration 10): 12% | % inhibition apPOL 180' (DRC-2, 180', concentration 20): 30% | % inhibition apPOL 180' (DRC-2, 180', concentration 40): 14% | % inhibition apPOL 180' (DRC-2, 180', concentration 80): 40% | % inhibition Apo pol 5' (DRC-2; 5'; concentration 5): 5% | % inhibition Apo pol 5' (DRC-2; 5'; concentration 10): 17% | % inhibition Apo pol 5' (DRC-2; 5'; concentration 40): 17% | % inhibition Apol 40' (DRC-2; 40'; concentration 2.5): 5% | % inhibition Apol 40' (DRC-2; 40'; concentration 80): 47% | % inhibition ApPOL 90' (DRC-2; 90'; concentration 80): 47% | DNA Pol (primary screen value, 'DNA Pol' only; 90 min, 10 µM): 36
